Data on four compounds can be found in patent US20260109712A1, “RIFAMYCINS FOR NONTUBERCULOUS MYCOBACTERIA” (priority 2022, published 2026).

Values after ≈ are worked out from the molar mass of the structure shown. Like-named read-outs stand apart in the source and are kept apart here.

Series [1] concerns M. avium subsp. hominisuis MAC109. Put plainly: MIC, anti-mycobacterial profiling. The class given is cell-based, Mycobacterium avium. The note with it: mean of two experiments.
The test system of series [2] is M. abscessus subsp. massiliense CCUG 48898T. Put plainly: MIC, anti-mycobacterial profiling. The class given is cell-based, Mycobacterium abscessus. As to conditions: mean of two experiments. Here is the method:
(§1) MIC determination was carried out in 96-well plate format as previously described.^[13-14] 96-well plates were initially set up with 100 μL of 7H9 per well. For each compound, a ten-point two-fold dilution series starting at twice the desired highest concentration was dispensed onto the 96-well plates using a Tecan D300e Digital Dispenser, with the DMSO concentration normalized to 2%. M. abscessus culture grown to mid-log phase (OD600=0.4-0.6) was diluted to OD600=0.1 (1×10^7 CFU/mL). 100 μL of the resulting bacteria suspension was dispensed onto the 96-well plates containing compounds to give a final volume of 200 μL per well with an initial OD600=0.05 (5×10^6 CFU/mL) and final DMSO concentration of 1%. Final compound concentration ranges were typically 50-0.098 μM, 6.25-0.012 μM, 0.006-3.13 μM, or 0.003-1.56 μM. Untreated control wells are included on each plate that contain bacteria suspension and 1% DMSO. Plates were sealed with parafilm, stored in boxes with wet paper towels and incubated at 37° C. with shaking (110 RPM). Plates were incubated for 3 days. To determine growth, OD600 was measured using a Tecan Infinite M200 plate reader on Day 0 and Day 3. Two biological replicates were performed. Clarithromycin was included in each experiment as a positive control.
(§2) For each well on the 96-well plate, bacterial growth was calculated by subtracting the Day 0 OD600 value from the Day 3 OD600 value. For each compound series, the bacterial growth values for the untreated control wells were averaged to give the average drug-free bacterial growth. For compound-containing wells, percentage growth was calculated by dividing their growth values by the average drug-free bacterial growth for the compound series and multiplying by 100. For each compound series, we plotted percentage growth versus compound concentration. By visual inspection of the dose-response curve, we determined the MIC of a compound as the compound concentrations that would result in 90% growth inhibition.
(§3) The MIC data was determined using methods disclosed in Example 1.

Series [3] has as its system M. abscessus subsp. bolletii CCUG 50184T. Put plainly: MIC, anti-mycobacterial profiling. Type of series: cell-based, Mycobacterium abscessus. The note with it: mean of two experiments. How it is done: as §1, §2, §3
Another series relates to M. xenopi ATCC 19250. The experiment in a line: MIC, anti-mycobacterial profiling. Type of series: cell-based, Mycobacterium xenopi. As to conditions: mean of two experiments.
In a further series the test system is M. abscessus ATCC 19977. Put plainly: MIC assay in 96-well plate format, wild-type strain. The note with it: for MICWT: Table 10. Type of series: cell-based, Mycobacterium abscessus. An outline of the steps: (§4)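 Two-fold, ten-point dilutions in 7H9 with 2% DMSO; mid-log culture diluted to OD600=0.1 (1×10^7 CFU/mL). Incubated 3 days at 37 °C, shaking 110 RPM; growth = Day 3 minus Day 0 OD600, expressed as percentage of drug-free growth and plotted against concentration. Two biological replicates.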

The next series relates to M. simiae ATCC 25275. Put plainly: MIC, anti-mycobacterial profiling. Type of series: cell-based, Mycobacterium simiae. The note with it: mean of two experiments.
The subject of a further series is M. kansasii ATCC 12478. The experiment in a line: MIC, anti-mycobacterial profiling. The class given is cell-based, Mycobacterium kansasii. As to conditions: mean of two experiments.
Another series has as its system M. chimaera CCUG 50989T. The experiment in a line: MIC, anti-mycobacterial profiling. The class given is cell-based, Mycobacterium chimaera. As to conditions: mean of two experiments.
The subject of series [4] is M. intracellulare ATCC 13950. The experiment in a line: MIC, anti-mycobacterial profiling. Type of series: cell-based, Mycobacterium intracellulare. The note with it: mean of two experiments.
Another series has as its system M. chelonae ATCC 35752. The experiment in a line: MIC, anti-mycobacterial profiling. Type of series: cell-based, Mycobacterium chelonae. The note with it: mean of two experiments.
In the next series the test system is M. fortuitum ATCC 6841. Put plainly: MIC, anti-mycobacterial profiling. Type of series: cell-based, Mycobacterium fortuitum. The note with it: mean of two experiments.
A further series relates to M. szulgai ATCC 35799. Put plainly: MIC, anti-mycobacterial profiling. The class given is cell-based, Mycobacterium szulgai. As to conditions: mean of two experiments.
The next series has as its system Mycobacterium abscessus. Put plainly: MIC against Mycobacterium abscessus (strain not given). The class given is cell-based.
The subject of a further series is THP-1. The experiment in a line: Fold-killing in THP-1. The class given is cell-based. The note with it: expressed in log-10 scale.
In the next series the test system is CYP3A4. As to conditions: human, 10 μM.
The next series relates to Δarr M. abscessus. Put plainly: MIC assay, isogenic arr-deleted strain. The note with it: Table 10. Type of series: cell-based, Mycobacterium abscessus. An outline of the steps: as §4
A further series deals with Mab ATCC 19977 (Smooth). The experiment in a line: Acute Mab mouse infection model (GM-CSF knockout mice). The class given is in vivo. The note with it: 25 mg/kg every day for 7 days. How it is done:
In vivo efficacy of compounds UMN22 and UMN34 were evaluated in acute Mab mouse infection model.

Series [5] is described as follows: Mouse pharmacokinetics studies. The class given is in vivo, CD-1 mice. As to conditions: for ƒAUC/MIC: Table 20; for F / Vd / clearance: female, CD-1, mouse, in vivo. An outline of the steps:
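Plasma from K2EDTA-collected blood analysed by LC-MS/MS with multiple-reaction monitoring in electrospray positive mode. Parameters derived by non-compartmental analysis.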

The nature of series [6]: Plasma protein binding assay (rapid equilibrium dialysis). Type of series: in vitro ADME. As to conditions: plasma. In outline:
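Rapid equilibrium dialysis ran 4 h at 37° C (300 RPM) with compound-spiked plasma (10,000 ng/mL) on one side and PBS on the other. Each side was then mixed 1:1 […] to equalise matrix before LC-MS/MS quantification.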

Setting [7] is: Mycobacteroides abscessus, 72 h, Table 22, read-out: MICMab.
Setting [8] is: Mycobacteroides abscessus, against Mycobacterium abscessus, Table 19, read-out: MIC.
The mark [9] stands for this setting: against Mycobacterium abscessus, Table 20, read-out: MIC.

On to `CO[C@H]1/C=C/O[C@@]2(C)Oc3c(C)c(O)c4c(O)c(c(/C=N/N5CCN(C)CC5)c(O)c4c3C2=O)NC(=O)/C(C)=C\C=C\[C@H](C)[C@H](O)[C@@H](C)[C@@H](O)[C@@H](C)[C@H](OC(C)=O)[C@@H]1C` [RIF], for which the MIC in series [1] is 0.04 µM (≈ 0.0329 µg/mL); in series [2] it was 13 µM (≈ 10.7 µg/mL); in [3] it was 28 µM (≈ 23 µg/mL); against M. xenopi ATCC 19250, 0.04 µM (≈ 0.0329 µg/mL); in the series with M. abscessus ATCC 19977 (M. abscessus subsp. abscessus ATCC 19977, mean of two experiments, read-out: MIC), 9.5 µM (≈ 7.82 µg/mL); against M. simiae ATCC 25275, above 100 µM. Also, the MIC was found to be 0.3 µM (≈ 0.247 µg/mL) with M. kansasii ATCC 12478; 0.07 µM (≈ 0.0576 µg/mL) in the series on M. chimaera CCUG 50989T; 0.06 µM (≈ 0.0494 µg/mL) in [4]; 1.4 µM (≈ 1.15 µg/mL) with M. chelonae ATCC 35752; 6.7 µM (≈ 5.51 µg/mL) in the series on M. fortuitum ATCC 6841; 0.06 µM (≈ 0.0494 µg/mL) with M. szulgai ATCC 35799.
Consider `CO[C@H]1/C=C/O[C@@]2(C)Oc3c(C)c(O)c4c(c3C2=O)C2=NC3(CCN(CC(C)C)CC3)NC2=C(NC(=O)/C(C)=C/C=C/[C@H](C)[C@H](O)[C@@H](C)[C@@H](O)[C@@H](C)[C@H](OC(=O)c2cccnc2)[C@@H]1C)C4=O` [UMN22], for which the MIC with Mycobacterium abscessus (setting [7]) turned out to be 0.025 µM (≈ 0.0228 µg/mL). In addition, the MIC in the series on Mycobacterium abscessus (setting [8]) was 0.025 µM (≈ 0.0228 µg/mL). For the same compound, the MIC with Mycobacterium abscessus (setting [9]) stood at 0.025 µM (≈ 0.0228 µg/mL). In the series with THP-1, the “Fold-killing in THP-1” value is reported as 3.8. The “CYP3A4 gene fold-induction at 10 μM” value with CYP3A4 is reported as 14.1. The compound further came in with an MICΔorr with Δarr M. abscessus of 0.027 µM. The MICWT with M. abscessus ATCC 19977 was determined as 0.025 µM. Moreover, the “reduction in lung CFU burden vs RFB and untreated groups” value with Mab ATCC 19977 (Smooth) is around 2 log10. Moreover, in series [5], the ƒAUC/MIC came to 45.0, the F turned out to be 78%, the Vd was 1.6 L/kg and the clearance was 3 mL/min/kg. In series [6] (4 h, 10000 ng/mL), the “plasma unbound (ƒu, %)” value worked out at 2.0%.
`COc1ccccc1NC(=O)O[C@H]1[C@H](C)[C@H](O)[C@H](C)[C@@H](O)[C@@H](C)/C=C/C=C(\C)C(=O)NC2=C3NC4(CCN(CC(C)C)CC4)N=C3c3c(c(O)c(C)c4c3C(=O)[C@@](C)(O/C=C/[C@H](OC)[C@H]1C)O4)C2=O` [UMN34]: the MIC in the series on Mycobacterium abscessus (setting [9]) was 0.015 µM (≈ 0.0143 µg/mL). The “Fold-killing in THP-1” value with THP-1 stood at 4.9. The same compound had an MICΔorr against Δarr M. abscessus of 0.014 µM. The MICWT in the series on M. abscessus ATCC 19977 worked out at 0.015 µM. Moreover, the “reduction in lung CFU burden vs RFB and untreated groups” value in the series with Mab ATCC 19977 (Smooth) is around 2 log10. For the same compound, the ƒAUC/MIC in series [5] is listed as 0.9. In [6], the “plasma unbound (ƒu, %)” value was determined as 0.12% and the plasma unbound fraction was 0.12%.
As to `CO[C@H]1/C=C/O[C@@]2(C)Oc3c(C)c(O)c4c(c3C2=O)C2=NC3(CCN(CC(C)C)CC3)NC2=C(NC(=O)/C(C)=C/C=C/[C@H](C)[C@H](O)[C@@H](C)[C@@H](O)[C@@H](C)[C@H](OC(=O)c2cncnc2)[C@@H]1C)C4=O` [UMN46], the MIC with Mycobacterium abscessus (setting [7]) is 0.018 µM (≈ 0.0164 µg/mL). Further, the MIC with Mycobacterium abscessus (setting [8]) amounted to 0.018 µM (≈ 0.0164 µg/mL). Besides, the MIC in the series on Mycobacterium abscessus (setting [9]) was 0.018 µM (≈ 0.0164 µg/mL). In the series with THP-1, the “Fold-killing in THP-1” value was 4.4. In addition, the “CYP3A4 gene fold-induction at 10 μM” value in the series with CYP3A4 is 7.9. Besides, the MICΔorr in the series on Δarr M. abscessus was determined as 0.025 µM. Also, in the series with M. abscessus ATCC 19977, the MICWT came to 0.018 µM. In series [5], this compound had a ƒAUC/MIC of 87.8, an F of 86%, a Vd of 2.1 L/kg and a clearance of 4 mL/min/kg. Moreover, in series [6] (4 h, 10000 ng/mL), the “plasma unbound (ƒu, %)” value turned out to be 4.7%.
